Experimental data reported in ChEMBL document CHEMBL1201862, “PubChem BioAssay data set” (2004).
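Interpolation was linear, between the two tested concentrations surrounding the appropriate level; five concentrations were tested over 48 hours in 96-well plates. The concentration for 50% growth inhibition is given as GI50.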 The source made the active and inactive calls. Cut-off read from the data, not from the text of the source: active = GI50 up to about 1.1 µM and inactive = higher.

Legend:
Assay in all cases: growth of human tumour cells (NCI), 48 h
[1] = test system: SK-MEL-5
[2] = test system: OVCAR-5
[3] = test system: RPMI-8226
[4] = test system: MOLT-4
[5] = test system: SR
[6] = test system: A498
[7] = test system: MDA-MB-231
[8] = test system: OVCAR-8
[9] = test system: Malme-3M
[10] = test system: NCI-H23
[11] = test system: SF-295
[12] = test system: BT-549
[13] = test system: HT-29
[14] = test system: HCT-116
[15] = test system: SW-620
[16] = test system: HCC 2998
[17] = test system: CAKI-1
[18] = test system: HOP-92
[19] = test system: SNB-75
[20] = test system: RXF 393

| Structure (SMILES) | GI50 [1] | GI50 [2] | GI50 [3] | GI50 [4] | GI50 [5] | GI50 [6] | GI50 [7] | GI50 [8] | GI50 [9] | GI50 [10] | GI50 [11] | GI50 [12] | GI50 [13] | GI50 [14] | GI50 [15] | GI50 [16] | GI50 [17] | GI50 [18] | GI50 [19] | GI50 [20] |
| --- | --- | --- | --- | --- | --- | --- | --- | --- | --- | --- | --- | --- | --- | --- | --- | --- | --- | --- | --- | --- |
| N[C@@H](CCC(=O)NCP(=O)(O)O)C(=O)O | > 100 µM (inactive) | > 100 µM (inactive) | > 100 µM (inactive) | > 100 µM (inactive) | > 100 µM (inactive) | > 100 µM (inactive) | > 100 µM (inactive) | > 100 µM (inactive) | > 100 µM (inactive) | > 100 µM (inactive) | > 100 µM (inactive) | > 100 µM (inactive) | > 100 µM (inactive) | > 100 µM (inactive) | > 100 µM (inactive) | > 100 µM (inactive) | – | – | – | – |
| COC(=O)c1cc(OC)c(OC)c(OC)c1-c1cc2c(cc1C=O)OCO2 | > 10 µM (inactive) | > 10 µM (inactive) | > 10 µM (inactive) | > 10 µM (inactive) | – | > 10 µM (inactive) | > 10 µM (inactive) | > 10 µM (inactive) | > 10 µM (inactive) | > 10 µM (inactive) | > 10 µM (inactive) | > 10 µM (inactive) | > 10 µM (inactive) | > 10 µM (inactive) | > 10 µM (inactive) | > 10 µM (inactive) | > 10 µM (inactive) | > 10 µM (inactive) | > 10 µM (inactive) | > 10 µM (inactive) |
| CO[C@H]1[C@@H](O)[C@H](O[C@@H]2C[C@H]3CC[C@@H]4[C@H](CC[C@]5(C)[C@@H](C6=CC(=O)OC6)CC[C@]45O)[C@@]3(C)[C@H](OC(C)=O)C2)O[C@@H](C)[C@H]1O | 0.494 µM (active) | 2.18 µM (inactive) | 2.05 µM (inactive) | 0.281 µM (active) | – | 1.31 µM (inactive) | 4.2 µM (inactive) | 1.73 µM (inactive) | 1.18 µM (inactive) | 0.662 µM (active) | 1.13 µM (inactive) | 0.637 µM (active) | 3.04 µM (inactive) | 0.76 µM (active) | 2.36 µM (inactive) | 7.18 µM (inactive) | 0.533 µM (active) | 2.54 µM (inactive) | 3.61 µM (inactive) | 0.402 µM (active) |
